Measured values taken from PMC9487510, “A Novel Oral GyrB/ParE Dual Binding Inhibitor Effective against Multidrug-Resistant Neisseria gonorrhoeae and Other High-Threat Pathogens” (Antimicrobial Agents and Chemotherapy, 2022).
Where two headings read alike, the source gives them in different places.

System: N. gonorrhoeae clinical isolates
Test: MIC, agar dilution (CLSI)
Assay type: cell-based, Neisseria gonorrhoeae
Conditions: for MIC: read-out: MIC

CO/N=C(\C(=O)N[C@@H]1C(=O)N2C(C(=O)O)=C(CSc3nc(=O)c(=O)[nH]n3C)CS[C@H]12)c1csc(N)n1 [Cro, ceftriaxone]
0.063 µg/mL: MIC (Neisseria gonorrhoeae, strain CDC5 (GCREF2012 001)) | MIC (Neisseria gonorrhoeae, strain CDC6 (GCREF2012 002)) | MIC (Neisseria gonorrhoeae, strain CDC16 (GCREF2012 012)) | MIC (Neisseria gonorrhoeae, strain CDC18 (GCREF2012 014)) | MIC (Neisseria gonorrhoeae, strain CDC20 (GCREF2012 017)) | MIC (Neisseria gonorrhoeae, strain CDC24 (GCREF2012 021)) | MIC (Neisseria gonorrhoeae, strain CDC32 (GCREF2012 029)) | MIC (Neisseria gonorrhoeae, strain CDC50 (GCREF2012 048)) | MIC (Neisseria gonorrhoeae, strain CDC87 (GCREF2013 036)) | MIC90 (Neisseria gonorrhoeae, 96 clinical isolates, read-out: MIC90)
0.031 µg/mL: MIC (Neisseria gonorrhoeae, strain CDC1 (GCREF2012 016)) | MIC (Neisseria gonorrhoeae, strain CDC2 (GCREF2012 045)) | MIC (Neisseria gonorrhoeae, strain CDC3 (GCREF2013 013)) | MIC (Neisseria gonorrhoeae, strain CDC4 (GCREF2013 030)) | MIC (Neisseria gonorrhoeae, strain CDC9 (GCREF2012 005)) | MIC (Neisseria gonorrhoeae, strain CDC10 (GCREF2012 006)) | MIC (Neisseria gonorrhoeae, strain CDC11 (GCREF2012 007)) | MIC (Neisseria gonorrhoeae, strain CDC12 (GCREF2012 008)) | MIC (Neisseria gonorrhoeae, strain CDC13 (GCREF2012 009)) | MIC (Neisseria gonorrhoeae, strain CDC14 (GCREF2012 010)) | MIC (Neisseria gonorrhoeae, strain CDC21 (GCREF2012 018)) | MIC (Neisseria gonorrhoeae, strain CDC23 (GCREF2012 020)) | MIC (Neisseria gonorrhoeae, strain CDC25 (GCREF2012 022)) | MIC (Neisseria gonorrhoeae, strain CDC26 (GCREF2012 023)) | MIC (Neisseria gonorrhoeae, strain CDC27 (GCREF2012 024)) | MIC (Neisseria gonorrhoeae, strain CDC28 (GCREF2012 025)) | MIC (Neisseria gonorrhoeae, strain CDC30 (GCREF2012 027)) | MIC (Neisseria gonorrhoeae, strain CDC31 (GCREF2012 028)) | MIC (Neisseria gonorrhoeae, strain CDC36 (GCREF2012 033)) | MIC (Neisseria gonorrhoeae, strain CDC37 (GCREF2012 034)) | MIC (Neisseria gonorrhoeae, strain CDC38 (GCREF2012 035)) | MIC (Neisseria gonorrhoeae, strain CDC39 (GCREF2012 036)) | MIC (Neisseria gonorrhoeae, strain CDC40 (GCREF2012 037)) | MIC (Neisseria gonorrhoeae, strain CDC41 (GCREF2012 038)) | MIC (Neisseria gonorrhoeae, strain CDC42 (GCREF2012 039)) | MIC (Neisseria gonorrhoeae, strain CDC43 (GCREF2012 040)) | MIC (Neisseria gonorrhoeae, strain CDC46 (GCREF2012 043)) | MIC (Neisseria gonorrhoeae, strain CDC47 (GCREF2012 044)) | MIC (Neisseria gonorrhoeae, strain CDC48 (GCREF2012 046)) | MIC (Neisseria gonorrhoeae, strain CDC49 (GCREF2012 047)) | MIC (Neisseria gonorrhoeae, strain CDC55 (GCREF2013 001)) | MIC (Neisseria gonorrhoeae, strain CDC60 (GCREF2013 005)) | MIC (Neisseria gonorrhoeae, strain CDC61 (GCREF2013 006)) | MIC (Neisseria gonorrhoeae, strain CDC69 (GCREF2013 017)) | MIC (Neisseria gonorrhoeae, strain CDC72 (GCREF2013 020)) | MIC (Neisseria gonorrhoeae, strain CDC81 (GCREF2013 029)) | MIC (Neisseria gonorrhoeae, strain CDC82 (GCREF2013 031)) | MIC (Neisseria gonorrhoeae, strain CDC88 (GCREF2013 037)) | MIC (Neisseria gonorrhoeae, strain CDC90 (GCREF2013 039)) | MIC (Neisseria gonorrhoeae, strain CDC92 (GCREF2013 041)) | MIC (Neisseria gonorrhoeae, strain CDC95 (GCREF2013 045)) | MIC (Neisseria gonorrhoeae, strain CDC97 (GCREF2013 047)) | MIC (Neisseria gonorrhoeae, strain CDC100 (GCREF2013 015)) | MIC50 (Neisseria gonorrhoeae, 96 clinical isolates, read-out: MIC50)
0.016 µg/mL: MIC (Neisseria gonorrhoeae, strain CDC8 (GCREF2012 004)) | MIC (Neisseria gonorrhoeae, strain CDC29 (GCREF2012 026)) | MIC (Neisseria gonorrhoeae, strain CDC56 (GCREF2013 002)) | MIC (Neisseria gonorrhoeae, strain CDC65 (GCREF2013 010)) | MIC (Neisseria gonorrhoeae, strain CDC68 (GCREF2013 016)) | MIC (Neisseria gonorrhoeae, strain CDC75 (GCREF2013 023)) | MIC (Neisseria gonorrhoeae, strain CDC76 (GCREF2013 024)) | MIC (Neisseria gonorrhoeae, strain CDC78 (GCREF2013 026)) | MIC (Neisseria gonorrhoeae, strain CDC79 (GCREF2013 027)) | MIC (Neisseria gonorrhoeae, strain CDC93 (GCREF2013 042)) | MIC (Neisseria gonorrhoeae, strain CDC96 (GCREF2013 046))
0.125 µg/mL: MIC (Neisseria gonorrhoeae, strain CDC33 (GCREF2012 030)) | MIC (Neisseria gonorrhoeae, strain CDC34 (GCREF2012 031)) | MIC (Neisseria gonorrhoeae, strain CDC35 (GCREF2012 032)) | MIC (Neisseria gonorrhoeae, strain CDC45 (GCREF2012 042)) | MIC (Neisseria gonorrhoeae, strain CDC91 (GCREF2013 040))
0.008 µg/mL: MIC (Neisseria gonorrhoeae, strain CDC15 (GCREF2012 011)) | MIC (Neisseria gonorrhoeae, strain CDC19 (GCREF2012 015)) | MIC (Neisseria gonorrhoeae, strain CDC22 (GCREF2012 019)) | MIC (Neisseria gonorrhoeae, strain CDC51 (GCREF2012 049)) | MIC (Neisseria gonorrhoeae, strain CDC52 (GCREF2012 050)) | MIC (Neisseria gonorrhoeae, strain CDC62 (GCREF2013 007)) | MIC (Neisseria gonorrhoeae, strain CDC64 (GCREF2013 009)) | MIC (Neisseria gonorrhoeae, strain CDC66 (GCREF2013 011)) | MIC (Neisseria gonorrhoeae, strain CDC67 (GCREF2013 014)) | MIC (Neisseria gonorrhoeae, strain CDC71 (GCREF2013 019)) | MIC (Neisseria gonorrhoeae, strain CDC73 (GCREF2013 021)) | MIC (Neisseria gonorrhoeae, strain CDC74 (GCREF2013 022)) | MIC (Neisseria gonorrhoeae, strain CDC77 (GCREF2013 025)) | MIC (Neisseria gonorrhoeae, strain CDC80 (GCREF2013 028)) | MIC (Neisseria gonorrhoeae, strain CDC83 (GCREF2013 032)) | MIC (Neisseria gonorrhoeae, strain CDC84 (GCREF2013 033)) | MIC (Neisseria gonorrhoeae, strain CDC86 (GCREF2013 035)) | MIC (Neisseria gonorrhoeae, strain CDC89 (GCREF2013 038)) | MIC (Neisseria gonorrhoeae, strain CDC94 (GCREF2013 043)) | MIC (Neisseria gonorrhoeae, strain CDC98 (GCREF2013 048)) | MIC (Neisseria gonorrhoeae, strain CDC99 (GCREF2013 012))
0.004 µg/mL: MIC (Neisseria gonorrhoeae, strain CDC53 (GCREF2012 051)) | MIC (Neisseria gonorrhoeae, strain CDC54 (GCREF2012 052)) | MIC (Neisseria gonorrhoeae, strain CDC57 (GCREF2013 003)) | MIC (Neisseria gonorrhoeae, strain CDC58 (GCREF2013 004)) | MIC (Neisseria gonorrhoeae, strain CDC59 (GCREF2013 044)) | MIC (Neisseria gonorrhoeae, strain CDC70 (GCREF2013 018))
<0.002 to 0.125 µg/mL: MIC range (96 clinical isolates)
